Earlier results in PubChem BioAssay AID1259409 (Chemical Carcinogenesis Research Information System (CCRIS), 2018).

Test system: rodent chemically induced tumor inhibition, incidence and multiplicity
Assay: CCRIS tumor inhibitor studies

## CCCN(CCC)c1c([N+](=O)[O-])cc(C(F)(F)F)cc1[N+](=O)[O-]
Carcinogen: BENZO[A]PYRENE, 50-32-8, Dose [Inhibitor]: 1000 PPM IN DIET CONTAINING 5% CORN OIL BEGINNING 1 WK PRIOR TO 1ST CARCINOGEN TREATMENT AND CONTINUING FOR 18 WK (STUDY, Route [Inhibitor]: ORAL, Species: MOUSE, Strain/Sex: STRAIN-A/FEMALE, Target Tissue: Type of Lesion: FORESTOMACH: SQUAMOUS CELL PAPILLOMA, Dose [Carcinogen]: 3 MG IN 0.25 ML CORN OIL AT 10 AND 12 WK OF AGE, Promoter: NONE USED
  tumour outcome (control, treated, inhibition, significance): 100%, 84%, 16%, not significant
Carcinogen: BENZO[A]PYRENE, 50-32-8, Dose [Inhibitor]: 1000 PPM IN DIET CONTAINING 5% CORN OIL BEGINNING 1 WK PRIOR TO 1ST CARCINOGEN TREATMENT AND CONTINUING FOR 18 WK (STUDY, Route [Inhibitor]: ORAL, Species: MOUSE, Strain/Sex: STRAIN-A/FEMALE, Target Tissue: Type of Lesion: LUNG: ADENOMA, Dose [Carcinogen]: 3 MG IN 0.25 ML CORN OIL AT 10 AND 12 WK OF AGE, Promoter: NONE USED
  tumour outcome (control, treated, inhibition, significance): 97%, 96%, 1%, not significant
Carcinogen: BENZO[A]PYRENE, 50-32-8, Dose [Inhibitor]: 1500 PPM IN DIET CONTAINING 5% CORN OIL BEGINNING 1 DAY POST LAST CARCINOGEN DOSE AND CONTINUING FOR 12 WK (STUDY DURATI, Route [Inhibitor]: ORAL, Species: MOUSE, Strain/Sex: STRAIN-A/FEMALE, Target Tissue: Type of Lesion: LUNG: ADENOMA, Dose [Carcinogen]: 3 MG IN 0.25 ML CORN OIL AT 6 AND 8 WK OF AGE, Promoter: NONE USED
  tumour outcome (control, treated, inhibition, significance): 80%, 32%, 60%, not significant
Carcinogen: BENZO[A]PYRENE, 50-32-8, Dose [Inhibitor]: 1500 PPM IN DIET CONTAINING 5% CORN OIL BEGINNING 1 WK POST LAST CARCINOGEN DOSE AND CONTINUING FOR 12 WK (STUDY DURATIO, Route [Inhibitor]: ORAL, Species: MOUSE, Strain/Sex: STRAIN-A/FEMALE, Target Tissue: Type of Lesion: FORESTOMACH: SQUAMOUS CELL PAPILLOMA, Dose [Carcinogen]: 3 MG IN 0.25 ML CORN OIL AT 6 AND 8 WK OF AGE, Promoter: NONE USED
  tumour outcome (control, treated, inhibition, significance): 100%, 88%, 12%, not significant
Carcinogen: BENZO[A]PYRENE, 50-32-8, Dose [Inhibitor]: 1500 PPM IN DIET CONTAINING 5% CORN OIL BEGINNING 4 D POST LAST CARCINOGEN DOSE AND CONTINUING FOR 12 WK (STUDY DURATION, Route [Inhibitor]: ORAL, Species: MOUSE, Strain/Sex: STRAIN-A/FEMALE, Target Tissue: Type of Lesion: FORESTOMACH: SQUAMOUS CELL PAPILLOMA, Dose [Carcinogen]: 3 MG IN 0.25 ML CORN OIL AT 6 AND 8 WK OF AGE, Promoter: NONE USED
  tumour outcome (control, treated, inhibition, significance): 92%, 80%, 13%, not significant
Carcinogen: BENZO[A]PYRENE, 50-32-8, Dose [Inhibitor]: 1500 PPM IN DIET CONTAINING 5% CORN OIL BEGINNING 4 D POST LAST CARCINOGEN DOSE AND CONTINUING FOR 12 WK (STUDY DURATION, Route [Inhibitor]: ORAL, Species: MOUSE, Strain/Sex: STRAIN-A/FEMALE, Target Tissue: Type of Lesion: LUNG: ADENOMA, Dose [Carcinogen]: 3 MG IN 0.25 ML CORN OIL AT 6 AND 8 WK OF AGE, Promoter: NONE USED
  tumour outcome (control, treated, inhibition, significance): 72%, 40%, 44%, not significant
Carcinogen: BENZO[A]PYRENE, 50-32-8, Dose [Inhibitor]: 1500 PPM IN DIET CONTAINING 5% CORN OIL BEGINNING 7 D POST LAST CARCINOGEN DOSE AND CONTINUING FOR 12 WK (STUDY DURATION, Route [Inhibitor]: ORAL, Species: MOUSE, Strain/Sex: STRAIN-A/FEMALE, Target Tissue: Type of Lesion: FORESTOMACH: SQUAMOUS CELL PAPILLOMA, Dose [Carcinogen]: 3 MG IN 0.25 ML CORN OIL AT 6 AND 8 WK OF AGE, Promoter: NONE USED
  tumour outcome (control, treated, inhibition, significance): 100%, 92%, 8%, not significant
Carcinogen: BENZO[A]PYRENE, 50-32-8, Dose [Inhibitor]: 1500 PPM IN DIET CONTAINING 5% CORN OIL BEGINNING 7 D POST LAST CARCINOGEN DOSE AND CONTINUING FOR 12 WK (STUDY DURATION, Route [Inhibitor]: ORAL, Species: MOUSE, Strain/Sex: STRAIN-A/FEMALE, Target Tissue: Type of Lesion: LUNG: ADENOMA, Dose [Carcinogen]: 3 MG IN 0.25 ML CORN OIL AT 6 AND 8 WK OF AGE, Promoter: NONE USED
  tumour outcome (control, treated, inhibition, significance): 72%, 60%, 17%, not significant
Carcinogen: BENZO[A]PYRENE, 50-32-8, Dose [Inhibitor]: 1500 PPM IN DIET CONTAINING 5% CORN OIL BEGINNING ON DAY OF LAST CARCINOGEN DOSE AND CONTINUING FOR 12 WK (STUDY DURATIO, Route [Inhibitor]: ORAL, Species: MOUSE, Strain/Sex: STRAIN-A/FEMALE, Target Tissue: Type of Lesion: FORESTOMACH: SQUAMOUS CELL PAPILLOMA, Dose [Carcinogen]: 3 MG IN 0.25 ML CORN OIL AT 6 AND 8 WK OF AGE, Promoter: NONE USED
  tumour outcome (control, treated, inhibition, significance): 88%, 100%, -14%, not significant
Carcinogen: BENZO[A]PYRENE, 50-32-8, Dose [Inhibitor]: 1500 PPM IN DIET CONTAINING 5% CORN OIL BEGINNING ON DAY OF LAST CARCINOGEN DOSE AND CONTINUING FOR 12 WK (STUDY DURATIO, Route [Inhibitor]: ORAL, Species: MOUSE, Strain/Sex: STRAIN-A/FEMALE, Target Tissue: Type of Lesion: LUNG: ADENOMA, Dose [Carcinogen]: 3 MG IN 0.25 ML CORN OIL AT 6 AND 8 WK OF AGE, Promoter: NONE USED
  tumour outcome (control, treated, inhibition, significance): 76%, 52%, 32%, not significant
Carcinogen: BENZO[A]PYRENE, 50-32-8, Dose [Inhibitor]: 2000 PPM IN DIET CONTAINING 5% CORN OIL BEGINNING 1 WK PRIOR TO 1ST CARCINOGEN TREATMENT AND CONTINUING FOR 18 WK (STUDY, Route [Inhibitor]: ORAL, Species: MOUSE, Strain/Sex: STRAIN-A/FEMALE, Target Tissue: Type of Lesion: FORESTOMACH: SQUAMOUS CELL PAPILLOMA, Dose [Carcinogen]: 3 MG IN 0.25 ML CORN OIL AT 10 AND 12 WK OF AGE, Promoter: NONE USED
  tumour outcome (control, treated, inhibition, significance): 100%, 63%, 37%, not calculated
Carcinogen: BENZO[A]PYRENE, 50-32-8, Dose [Inhibitor]: 2000 PPM IN DIET CONTAINING 5% CORN OIL BEGINNING 1 WK PRIOR TO 1ST CARCINOGEN TREATMENT AND CONTINUING FOR 18 WK (STUDY, Route [Inhibitor]: ORAL, Species: MOUSE, Strain/Sex: STRAIN-A/FEMALE, Target Tissue: Type of Lesion: LUNG: ADENOMA, Dose [Carcinogen]: 3 MG IN 0.25 ML CORN OIL AT 10 AND 12 WK OF AGE, Promoter: NONE USED
  tumour outcome (control, treated, inhibition, significance): 97%, 74%, 24%, not calculated

## CCN1CCCC1CNC(=O)c1cc(S(N)(=O)=O)ccc1OC (stereo unspecified)
Carcinogen: N-METHYL-N'-NITRO-N-NITROSOGUANIDINE, 70-25-7, Dose [Inhibitor]: 0, 30 MG/KG 1/2 D BEGINNING 1 WK POST CARCINOGEN TREATMENT AND CONTINUING FOR DURATION OF STUDY (STUDY DURATION: 52 WK), Route [Inhibitor]: SUBCUTANEOUS, Species: RAT, Strain/Sex: WISTAR/MALE, Target Tissue: Type of Lesion: STOMACH: ADENOCARCINOMA, Dose [Carcinogen]: 50 UG/ML IN DRINKING WATER FOR 25 WK, Promoter: NONE USED
  tumour outcome (control, treated, inhibition, significance): 13/18 (72%), 11/18 (61%), 15%, not significant
Carcinogen: N-METHYL-N'-NITRO-N-NITROSOGUANIDINE, 70-25-7, Dose [Inhibitor]: 0, 30 MG/KG IN 2 ML/KG 0.9% NACL 1/2 D FOR STUDY DURATION BEGINNING POST CARCINOGEN TREATMENT (STUDY DURATION: 52 WK), Route [Inhibitor]: SUBCUTANEOUS, Species: RAT, Strain/Sex: WISTAR/MALE, Target Tissue: Type of Lesion: GLANDULAR STOMACH: ADENOCARCINOMA, Dose [Carcinogen]: 50 UG/ML DRINKING WATER FOR 25 WK
  tumour outcome (control, treated, inhibition, significance): 13/18 (72%), 11/18 (61%), 15%, not significant

## CN1[C@@H]2CC[C@H]1CC(OC(=O)C(CO)c1ccccc1)C2 (stereo partly specified)
Carcinogen: N-METHYL-N'-NITRO-N-NITROSOGUANIDINE, 70-25-7, Dose [Inhibitor]: 0, 0.5 MG/KG IN OLIVE OIL SUSPENSION 1/D BEGINNING 1 WK POST LAST CARCINOGEN DOSE AND CONTINUING FOR DURATION OF STUDY (, Species: RAT, Strain/Sex: WISTAR/MALE, Target Tissue: Type of Lesion: GLANDULAR STOMACH: ADENOCARCINOMA, Dose [Carcinogen]: 50 UG/ML IN DRINKING WATER FOR 25 WK, Promoter: NONE USED
  tumour outcome (control, treated, inhibition, significance): 15/18 (83%), 15/19 (79%), 5%, not calculated

## CCCC(C(=O)OCCN(CC)CC)(c1ccccc1)c1ccccc1
Carcinogen: URETHANE, 51-79-6, Dose [Inhibitor]: 0, 50 MG/KG ONCE AT 24 HR AND 1 HR PRIOR TO CARCINOGEN DOSE THEN ONCE 24 HR AND 48 HR POST CARCINOGEN DOSE (STUDY DURATI, Route [Inhibitor]: INTRAPERITONEAL, Species: MOUSE, Strain/Sex: BALB/MALE, FEMALE, Target Tissue: Type of Lesion: LUNG: TUMOR, Dose [Carcinogen]: 0.5 G/KG IN 0.9% SALINE ONCE, Promoter: NONE USED
  tumour outcome (control, treated, inhibition, significance): 94%, 91%, 3%, not significant
